Patent EP0361341A2, “Therapeutics for aids based on inhibitors of HIV protease” (MILES INC., priority 1988, dated 1990)

Test system: HIV-I
Assay: p24 antigen capture assay in HIV-I infected H9 lymphocytes (in vivo assay of HIV protease activity, Example 53)
Assay type: cell-based
Settings: H9 lymphocytes infected with HIV-I, three days at 37 C, relative to infected, untreated cultures; read-out: concentration showing 50% inhibition of p24 formation
Method: A p24 capture assay (see Example 50 hereinbelow) provides an "in vivo" method for determining HIV-protease activity. The inhibitor is added to cells infected with HIV, […]. Inhibition of propagation of HIV-protease in cells is measured by the absence or presence of p24, which is generated by HIV protease.
H9 lymphocytes (1x 10^7 cells/ml) were incubated in the presence or absence of HIV-I for 1 hour at 37 C. Cells were washed thoroughly to remove unadsorbed virions and resuspended at 4x10^5 cells/ml in culture medium. Aliquots (one milliliter) were placed in wells of 24 well culture plates containing an equal volume of test compound (diluted in culture medium). After incubation for three days at 37 C, cell density of uninfected cultures was determined to assess toxicity of test compound. A p24 antigen capture assay was used to determine the level of HIV infection in HIV treated cultures. The ability of test compounds to inhibit HIV replication was measured at different concentrations of test compound relative to infected, untreated cultures.

IC50: 200 µM
Compound: CC[C@H](C)[C@H](NC(=O)[C@@H]1CCCN1CC(Cc1ccccc1)NC(=O)[C@H](CC(N)=O)NC(=O)[C@H](Cc1ccccc1)NC(=O)OC(C)(C)C)C(=O)OCc1ccccc1 (stereo partly drawn) [Example 25, N-[N-[2-[[N2-[N-[(1,1-Dimethylethoxy)carbonyl]-L-phenylalanyl]-L-asparagyl]amino]-3-phenylpropyl]-L-prolyl]-L-isoleucinbenzylester]
